# Source: US11659837B2, “Mixtures comprising an urease inhibitor (UI) and a nitrification inhibitor such as 2-(3,4-dimethyl-1H-pyrazol-1-yl)succinic acid (DMPSA) or 3,4-dimethyl pyrazolium glycolate (DMPG)” (BASF SE, priority 2017, dated 2023)
# Tested on: N2O emissions from soils
# Assay: Greenhouse experiment: detection of nitrous oxide (N2O) losses from pots
# Conditions: urea
# Text: Detection of Nitrous Oxide Losses:
# On application day (DATO), each pot (with/without plants or algae) was set onto a plant saucer designed with an inner compartment for the pot and an outer ring that is filled with water. At time 0, water holding capacity of the soil was set to 60-70% prior to application with/without fertilizer and a.i. Subsequently, a gas sampling chamber was placed over the plant saucer such that the rim fit into the ring filled with water to create a gas-tight chamber and 25 cc air from the chamber were drawn into a syringe and immediately emptied in to a Vacutainer (Labco, 12 ml volume). This equals the Time 0 measurement for each pot. The same procedure was performed with all pots in the experiment. After two hour incubation time, again 25 cc air samples were taken from the gas chambers and emptied into Vacutainers as described above. Plants were then returned to their positions in the climate chamber. The procedure was repeated at precisely the same time of day for up to 19 days.
# Samples were analyzed in a Shimadzu 2014 GC equipped with an ECD system.
# [1] = DAT 1, NI 0.20, UI 0.01 where present
# [2] = DAT 1, NI 0.35, UI 0.01 where present
# [3] = DAT 1, NI 0.50, UI 0.01 where present
# [4] = DAT 2, NI 0.20, UI 0.01 where present
# [5] = DAT 2, NI 0.35, UI 0.01 where present
# [6] = DAT 2, NI 0.50, UI 0.01 where present
# [7] = DAT 3, NI 0.20, UI 0.01 where present
# [8] = DAT 3, NI 0.35, UI 0.01 where present
# [9] = DAT 3, NI 0.50, UI 0.01 where present
# [10] = DAT 4, NI 0.20, UI 0.01 where present
# [11] = DAT 4, NI 0.35, UI 0.01 where present
# [12] = DAT 4, NI 0.50, UI 0.01 where present
# [13] = DAT 5, NI 0.20, UI 0.01 where present
# [14] = DAT 5, NI 0.35, UI 0.01 where present
# [15] = DAT 5, NI 0.50, UI 0.01 where present
# [16] = DAT 6, NI 0.20, UI 0.01 where present
# [17] = DAT 6, NI 0.35, UI 0.01 where present
# [18] = DAT 6, NI 0.50, UI 0.01 where present
# [19] = DAT 7, NI 0.20, UI 0.01 where present
# [20] = DAT 7, NI 0.35, UI 0.01 where present
# [21] = DAT 7, NI 0.50, UI 0.01 where present
# [22] = DAT 8, NI 0.20, UI 0.01 where present
# [23] = DAT 8, NI 0.35, UI 0.01 where present
# [24] = DAT 8, NI 0.50, UI 0.01 where present
# [25] = DAT 10, NI 0.20, UI 0.01 where present
# [26] = DAT 10, NI 0.35, UI 0.01 where present
# [27] = DAT 10, NI 0.50, UI 0.01 where present
# [28] = DAT 12, NI 0.20, UI 0.01 where present
# [29] = DAT 12, NI 0.35, UI 0.01 where present
# [30] = DAT 12, NI 0.50, UI 0.01 where present
# [31] = DAT 16, NI 0.20, UI 0.01 where present
# [32] = DAT 16, NI 0.35, UI 0.01 where present
# [33] = DAT 16, NI 0.50, UI 0.01 where present
# [34] = DAT 19, NI 0.20, UI 0.01 where present
# [35] = DAT 19, NI 0.35, UI 0.01 where present
# [36] = DAT 19, NI 0.50, UI 0.01 where present
smiles,measurement,setting,value
Cc1cn(C(CC(=O)[O-])C(=O)[O-])nc1C.[K+].[K+] (stereo not shown) [DMPSA-K2],"Nitrous oxide (N2O) emissions, cumulated values",[1],8.97 μg N2O—N/m2*h
same,"Nitrous oxide (N2O) emissions, cumulated values",[2],7.74 μg N2O—N/m2*h
same,"Nitrous oxide (N2O) emissions, cumulated values",[3],7.62 μg N2O—N/m2*h
same,"Nitrous oxide (N2O) emissions, cumulated values",[4],19.30 μg N2O—N/m2*h
same,"Nitrous oxide (N2O) emissions, cumulated values",[5],18.94 μg N2O—N/m2*h
same,"Nitrous oxide (N2O) emissions, cumulated values",[6],20.18 μg N2O—N/m2*h
same,"Nitrous oxide (N2O) emissions, cumulated values",[7],29.75 μg N2O—N/m2*h
same,"Nitrous oxide (N2O) emissions, cumulated values",[8],29.26 μg N2O—N/m2*h
same,"Nitrous oxide (N2O) emissions, cumulated values",[9],30.31 μg N2O—N/m2*h
same,"Nitrous oxide (N2O) emissions, cumulated values",[10],37.16 μg N2O—N/m2*h
same,"Nitrous oxide (N2O) emissions, cumulated values",[11],37.09 μg N2O—N/m2*h
same,"Nitrous oxide (N2O) emissions, cumulated values",[12],37.69 μg N2O—N/m2*h
same,"Nitrous oxide (N2O) emissions, cumulated values",[13],45.99 μg N2O—N/m2*h
same,"Nitrous oxide (N2O) emissions, cumulated values",[14],46.55 μg N2O—N/m2*h
same,"Nitrous oxide (N2O) emissions, cumulated values",[15],46.97 μg N2O—N/m2*h
same,"Nitrous oxide (N2O) emissions, cumulated values",[16],52.71 μg N2O—N/m2*h
same,"Nitrous oxide (N2O) emissions, cumulated values",[17],52.67 μg N2O—N/m2*h
same,"Nitrous oxide (N2O) emissions, cumulated values",[18],52.44 μg N2O—N/m2*h
same,"Nitrous oxide (N2O) emissions, cumulated values",[19],60.65 μg N2O—N/m2*h
same,"Nitrous oxide (N2O) emissions, cumulated values",[20],60.12 μg N2O—N/m2*h
same,"Nitrous oxide (N2O) emissions, cumulated values",[21],62.57 μg N2O—N/m2*h
same,"Nitrous oxide (N2O) emissions, cumulated values",[22],68.52 μg N2O—N/m2*h
same,"Nitrous oxide (N2O) emissions, cumulated values",[23],70.52 μg N2O—N/m2*h
same,"Nitrous oxide (N2O) emissions, cumulated values",[24],72.03 μg N2O—N/m2*h
same,"Nitrous oxide (N2O) emissions, cumulated values",[25],77.59 μg N2O—N/m2*h
same,"Nitrous oxide (N2O) emissions, cumulated values",[26],77.77 μg N2O—N/m2*h
same,"Nitrous oxide (N2O) emissions, cumulated values",[27],79.00 μg N2O—N/m2*h
same,"Nitrous oxide (N2O) emissions, cumulated values",[28],85.15 μg N2O—N/m2*h
same,"Nitrous oxide (N2O) emissions, cumulated values",[29],81.35 μg N2O—N/m2*h
same,"Nitrous oxide (N2O) emissions, cumulated values",[30],82.43 μg N2O—N/m2*h
same,"Nitrous oxide (N2O) emissions, cumulated values",[31],87.97 μg N2O—N/m2*h
same,"Nitrous oxide (N2O) emissions, cumulated values",[32],84.12 μg N2O—N/m2*h
same,"Nitrous oxide (N2O) emissions, cumulated values",[33],84.05 μg N2O—N/m2*h
same,"Nitrous oxide (N2O) emissions, cumulated values",[34],88.83 μg N2O—N/m2*h
same,"Nitrous oxide (N2O) emissions, cumulated values",[35],84.94 μg N2O—N/m2*h
same,"Nitrous oxide (N2O) emissions, cumulated values",[36],84.28 μg N2O—N/m2*h
same,"Nitrous oxide (N2O) emissions, % appl. N","NI 0.20, UI 0.01 where present",0.381 % appl. N
same,"Nitrous oxide (N2O) emissions, % appl. N","NI 0.35, UI 0.01 where present",0.364 % appl. N
same,"Nitrous oxide (N2O) emissions, % appl. N","NI 0.50, UI 0.01 where present",0.361 % appl. N
Cc1cn(C(CC(=O)O)C(=O)O)nc1C.N.N (stereo not shown) [DMPSA-di-NH4],"Nitrous oxide (N2O) emissions, cumulated values",[1],5.71 μg N2O—N/m2*h
same,"Nitrous oxide (N2O) emissions, cumulated values",[2],6.74 μg N2O—N/m2*h
same,"Nitrous oxide (N2O) emissions, cumulated values",[3],7.89 μg N2O—N/m2*h
same,"Nitrous oxide (N2O) emissions, cumulated values",[4],17.84 μg N2O—N/m2*h
same,"Nitrous oxide (N2O) emissions, cumulated values",[5],22.08 μg N2O—N/m2*h
same,"Nitrous oxide (N2O) emissions, cumulated values",[6],16.36 μg N2O—N/m2*h
same,"Nitrous oxide (N2O) emissions, cumulated values",[7],28.36 μg N2O—N/m2*h
same,"Nitrous oxide (N2O) emissions, cumulated values",[8],30.26 μg N2O—N/m2*h
same,"Nitrous oxide (N2O) emissions, cumulated values",[9],23.64 μg N2O—N/m2*h
same,"Nitrous oxide (N2O) emissions, cumulated values",[10],40.61 μg N2O—N/m2*h
same,"Nitrous oxide (N2O) emissions, cumulated values",[11],39.25 μg N2O—N/m2*h
same,"Nitrous oxide (N2O) emissions, cumulated values",[12],31.59 μg N2O—N/m2*h
same,"Nitrous oxide (N2O) emissions, cumulated values",[13],51.02 μg N2O—N/m2*h
same,"Nitrous oxide (N2O) emissions, cumulated values",[14],47.97 μg N2O—N/m2*h
same,"Nitrous oxide (N2O) emissions, cumulated values",[15],38.95 μg N2O—N/m2*h
same,"Nitrous oxide (N2O) emissions, cumulated values",[16],57.34 μg N2O—N/m2*h
same,"Nitrous oxide (N2O) emissions, cumulated values",[17],54.68 μg N2O—N/m2*h
same,"Nitrous oxide (N2O) emissions, cumulated values",[18],45.83 μg N2O—N/m2*h
same,"Nitrous oxide (N2O) emissions, cumulated values",[19],66.12 μg N2O—N/m2*h
same,"Nitrous oxide (N2O) emissions, cumulated values",[20],60.89 μg N2O—N/m2*h
same,"Nitrous oxide (N2O) emissions, cumulated values",[21],53.03 μg N2O—N/m2*h
same,"Nitrous oxide (N2O) emissions, cumulated values",[22],76.79 μg N2O—N/m2*h
same,"Nitrous oxide (N2O) emissions, cumulated values",[23],66.75 μg N2O—N/m2*h
same,"Nitrous oxide (N2O) emissions, cumulated values",[24],62.02 μg N2O—N/m2*h
same,"Nitrous oxide (N2O) emissions, cumulated values",[25],86.54 μg N2O—N/m2*h
same,"Nitrous oxide (N2O) emissions, cumulated values",[26],72.23 μg N2O—N/m2*h
same,"Nitrous oxide (N2O) emissions, cumulated values",[27],67.48 μg N2O—N/m2*h
same,"Nitrous oxide (N2O) emissions, cumulated values",[28],92.81 μg N2O—N/m2*h
same,"Nitrous oxide (N2O) emissions, cumulated values",[29],76.32 μg N2O—N/m2*h
same,"Nitrous oxide (N2O) emissions, cumulated values",[30],72.35 μg N2O—N/m2*h
same,"Nitrous oxide (N2O) emissions, cumulated values",[31],93.10 μg N2O—N/m2*h
same,"Nitrous oxide (N2O) emissions, cumulated values",[32],78.21 μg N2O—N/m2*h
same,"Nitrous oxide (N2O) emissions, cumulated values",[33],74.66 μg N2O—N/m2*h
same,"Nitrous oxide (N2O) emissions, cumulated values",[34],93.49 μg N2O—N/m2*h
same,"Nitrous oxide (N2O) emissions, cumulated values",[35],78.47 μg N2O—N/m2*h
same,"Nitrous oxide (N2O) emissions, cumulated values",[36],75.03 μg N2O—N/m2*h
same,"Nitrous oxide (N2O) emissions, % appl. N","NI 0.20, UI 0.01 where present",0.401 % appl. N
same,"Nitrous oxide (N2O) emissions, % appl. N","NI 0.35, UI 0.01 where present",0.337 % appl. N
same,"Nitrous oxide (N2O) emissions, % appl. N","NI 0.50, UI 0.01 where present",0.322 % appl. N
"CCCCNP(N)(N)=S [NBPT, N-(n-butyl)thiophosphoric acid triamide, reference compound]","Nitrous oxide (N2O) emissions, cumulated values","DAT 1, no NI, UI 0.01",9.77 μg N2O—N/m2*h
same,"Nitrous oxide (N2O) emissions, cumulated values","DAT 2, no NI, UI 0.01",27.42 μg N2O—N/m2*h
same,"Nitrous oxide (N2O) emissions, cumulated values","DAT 3, no NI, UI 0.01",40.07 μg N2O—N/m2*h
same,"Nitrous oxide (N2O) emissions, cumulated values","DAT 4, no NI, UI 0.01",53.70 μg N2O—N/m2*h
same,"Nitrous oxide (N2O) emissions, cumulated values","DAT 5, no NI, UI 0.01",68.86 μg N2O—N/m2*h
same,"Nitrous oxide (N2O) emissions, cumulated values","DAT 6, no NI, UI 0.01",89.16 μg N2O—N/m2*h
same,"Nitrous oxide (N2O) emissions, cumulated values","DAT 7, no NI, UI 0.01",109.04 μg N2O—N/m2*h
same,"Nitrous oxide (N2O) emissions, cumulated values","DAT 8, no NI, UI 0.01",127.94 μg N2O—N/m2*h
same,"Nitrous oxide (N2O) emissions, cumulated values","DAT 10, no NI, UI 0.01",133.95 μg N2O—N/m2*h
same,"Nitrous oxide (N2O) emissions, cumulated values","DAT 12, no NI, UI 0.01",140.07 μg N2O—N/m2*h
same,"Nitrous oxide (N2O) emissions, cumulated values","DAT 16, no NI, UI 0.01",143.31 μg N2O—N/m2*h
same,"Nitrous oxide (N2O) emissions, cumulated values","DAT 19, no NI, UI 0.01",146.30 μg N2O—N/m2*h
same,"Nitrous oxide (N2O) emissions, % appl. N","no NI, UI 0.01",0.628 % appl. N
